Literature values, collected in patent US20240415829A1, “METHODS AND COMPOSITIONS FOR THE TREATMENT OF DRUG OVERDOSE” (priority 2023, published 2024).

Tests used:
[1] = human clinical trials
[2] = xylazine 0.15 mg/kg, sheep 58-69 kg
[3] = results from other studies; individuals with OUD, tobacco use disorder, AUD

| SMILES | adverse effects leading to termination of human trials [1] | sedation, respiration, blood pressure and heart rate effects [2] | doses supported for safe use in humans [3] |
| --- | --- | --- | --- |
| Cc1cccc(C)c1NC1=NCCCS1 [xylazine] | severe hypotension and central nervous system (CNS) depressant effects | significant sedation/decreased respiration and decreased blood pressure/heart rate | – |
| COC(=O)[C@@H]1[C@H]2C[C@H]3c4[nH]c5ccccc5c4CCN3C[C@@H]2CC[C@@H]1O [yohimbine] | – | – | up to 60 mg |
